{"source": "patent US20100035867A1", "about": "(priority 2006, published 2010)", "key": {"rabbit intestinal loop": {"system": "rabbit intestinal loop", "assay": "Liquid secretion induced by STa in a rabbit intestinal loop model", "type": "in vivo", "description": "The test was performed by the method known in the art (Alcantara, C. S.; Jin, X. H.; Brito, G. A.; Carneiro-Filho, B. A.; Barrett, L. J.; Carey, R. M.; Guerrant, R. L., Angiotensin II subtype 1 receptor blockade inhibits Clostridium difficile toxin A-induced intestinal secretion in a rabbit model. J Infect Dis 2005, 191, (12), 2090-6). Volume of liquid in the loop was divided by the length of the loop and the normalized value was used to assess liquid accumulation in the intestinal lumen."}, "[1]": {"target": "T1, soluble guanylyl cyclase (sGC) (Rattus norvegicus, UniProt P19686+P20595)", "T1 sequence (P20595 1-619)": "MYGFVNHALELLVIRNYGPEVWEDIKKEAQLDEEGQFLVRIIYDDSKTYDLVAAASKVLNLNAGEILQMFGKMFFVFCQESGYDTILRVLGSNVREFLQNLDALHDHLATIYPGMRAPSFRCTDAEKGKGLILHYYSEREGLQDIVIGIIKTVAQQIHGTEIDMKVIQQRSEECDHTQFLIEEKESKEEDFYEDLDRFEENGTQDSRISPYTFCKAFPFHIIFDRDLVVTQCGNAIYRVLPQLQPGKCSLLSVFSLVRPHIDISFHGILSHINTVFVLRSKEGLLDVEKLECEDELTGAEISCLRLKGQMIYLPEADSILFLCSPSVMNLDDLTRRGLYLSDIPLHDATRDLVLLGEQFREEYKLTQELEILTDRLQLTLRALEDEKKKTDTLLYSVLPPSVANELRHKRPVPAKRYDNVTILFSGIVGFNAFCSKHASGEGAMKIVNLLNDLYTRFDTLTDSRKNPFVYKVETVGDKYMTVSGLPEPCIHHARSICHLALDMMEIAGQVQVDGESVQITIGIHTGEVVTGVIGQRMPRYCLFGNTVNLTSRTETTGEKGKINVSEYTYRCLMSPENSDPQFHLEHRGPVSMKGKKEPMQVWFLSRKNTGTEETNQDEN", "T1 sequence (P19686 1-690)": "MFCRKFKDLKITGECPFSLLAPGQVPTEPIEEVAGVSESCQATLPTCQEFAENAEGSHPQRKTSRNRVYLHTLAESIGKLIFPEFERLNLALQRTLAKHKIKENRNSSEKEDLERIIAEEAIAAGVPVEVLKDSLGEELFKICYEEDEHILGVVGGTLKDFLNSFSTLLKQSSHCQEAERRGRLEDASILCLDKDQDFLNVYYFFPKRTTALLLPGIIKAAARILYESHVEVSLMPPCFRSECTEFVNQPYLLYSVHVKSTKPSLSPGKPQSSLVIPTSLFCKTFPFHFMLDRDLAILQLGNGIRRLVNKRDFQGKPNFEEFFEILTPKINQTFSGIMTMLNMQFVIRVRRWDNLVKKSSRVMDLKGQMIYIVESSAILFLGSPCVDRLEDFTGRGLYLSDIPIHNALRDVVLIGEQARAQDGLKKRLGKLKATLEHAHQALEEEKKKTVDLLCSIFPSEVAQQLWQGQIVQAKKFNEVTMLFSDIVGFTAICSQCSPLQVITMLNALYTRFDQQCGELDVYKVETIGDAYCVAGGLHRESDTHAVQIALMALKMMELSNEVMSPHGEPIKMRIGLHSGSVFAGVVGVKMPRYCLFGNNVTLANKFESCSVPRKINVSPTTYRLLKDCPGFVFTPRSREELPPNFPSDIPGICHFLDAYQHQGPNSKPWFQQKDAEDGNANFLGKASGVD", "assay": "Nitric oxide donor-induced cyclic GMP accumulation in RFL-6 fibroblast cells", "settings": "RFL-6 cells, 10 μM benzotrifuroxan, 50 μM compound"}, "T84 cells": {"system": "T84 cells", "assay": "STa-induced chloride transport in T84 cells (SPQ)", "type": "cell-based, human", "settings": "increasing STa concentrations, 50 μM compound", "description": "The chloride transport assay was performed by a method known in the art (West, M. R.; Molloy, C. R., A microplate assay measuring chloride ion channel activity. Anal Biochem 1996, 241, (1), 51-8). In some experiments, MQAE was used as a fluorescent sensor for chloride anions and in other experiments, SPQ was used to detect chloride efflux from T84 cells.\nThis experiment followed the protocol described in Examples 2 and 10. SPQ was used to detect chloride efflux from T84 cells."}, "[2]": {"system": "adenylyl cyclase or guanylyl cyclase", "type": "cell-based", "settings": "read-out: typical IC50"}, "[3]": {"target": "guanylyl cyclase type C (GC-C) (Homo sapiens, UniProt P25092)", "sequence (P25092 24-1073)": "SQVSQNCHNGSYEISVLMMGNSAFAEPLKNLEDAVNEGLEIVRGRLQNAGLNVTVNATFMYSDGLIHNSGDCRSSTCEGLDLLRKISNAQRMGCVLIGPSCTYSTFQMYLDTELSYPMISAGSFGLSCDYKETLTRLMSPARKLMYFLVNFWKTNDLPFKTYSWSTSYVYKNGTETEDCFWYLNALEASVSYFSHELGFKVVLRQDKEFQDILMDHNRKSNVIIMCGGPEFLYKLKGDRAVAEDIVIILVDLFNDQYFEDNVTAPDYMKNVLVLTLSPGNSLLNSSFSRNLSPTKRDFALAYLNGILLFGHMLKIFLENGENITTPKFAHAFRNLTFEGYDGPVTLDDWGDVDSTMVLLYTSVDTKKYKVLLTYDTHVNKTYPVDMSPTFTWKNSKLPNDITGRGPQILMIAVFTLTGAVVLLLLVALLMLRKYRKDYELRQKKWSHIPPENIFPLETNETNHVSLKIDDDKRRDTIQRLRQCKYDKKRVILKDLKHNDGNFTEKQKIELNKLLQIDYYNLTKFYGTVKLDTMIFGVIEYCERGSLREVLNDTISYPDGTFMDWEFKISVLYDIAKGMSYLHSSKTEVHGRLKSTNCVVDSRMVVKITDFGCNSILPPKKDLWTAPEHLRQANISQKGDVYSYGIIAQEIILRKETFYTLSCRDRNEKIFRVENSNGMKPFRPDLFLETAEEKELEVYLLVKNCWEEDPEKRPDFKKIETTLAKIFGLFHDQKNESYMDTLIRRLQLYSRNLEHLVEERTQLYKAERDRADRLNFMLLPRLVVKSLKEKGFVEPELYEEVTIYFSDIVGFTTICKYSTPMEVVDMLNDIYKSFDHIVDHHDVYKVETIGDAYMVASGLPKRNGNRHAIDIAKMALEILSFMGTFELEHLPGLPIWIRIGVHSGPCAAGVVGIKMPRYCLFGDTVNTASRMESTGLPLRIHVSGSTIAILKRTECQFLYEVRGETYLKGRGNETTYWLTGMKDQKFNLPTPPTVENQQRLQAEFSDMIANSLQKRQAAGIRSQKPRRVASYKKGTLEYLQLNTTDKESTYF", "assay": "STa-induced activation of GC-C in T84 cells (cyclic GMP accumulation, ELISA)", "type": "cell-based", "set-up": "endogenous in cells; host or cells: T84 cells"}, "adenylyl cyclase": {"system": "adenylyl cyclase", "type": "cell-based, human"}}, "note": "Several values for one entry are separate records, joined by “and”; a condition that tells them apart may be missing. Equal values may be shown once."}
{"molecule": "Cn1c2c(c(=O)n(C)c1=O)C(c1cccc(Br)c1)C1=C(N2)c2ccccc2C1=O", "note": "(centres unmarked) [compound IIb]", "values": [{"measurement": "liquid accumulation (volume per loop length)", "setting": "rabbit intestinal loop; rabbit loops injected with 100 nM STa and 50 μM compound, STa+vehicle 0.62±0.05, PBS 0.18±0.03", "value": "0.15 ± 0.06", "unit": "mL/cm"}, {"measurement": "inhibition of STa-stimulated liquid accumulation", "setting": "rabbit intestinal loop; rabbit loops, 100 nM STa, 50 μM compound", "value": "completely"}, {"measurement": "inhibition of cyclic GMP accumulation (FIG. 6)", "setting": "[1]", "value": "inhibition"}, {"measurement": "STa-induced increase in chloride efflux", "setting": "T84 cells", "value": "significantly suppressed"}, {"measurement": "IC50", "setting": "[2]", "value": "~5", "unit": "µM"}, {"measurement": "inhibition of STa-induced activation of GC-C (FIG. 2)", "setting": "[3]", "value": "inhibition"}, {"measurement": "inhibition at 50 µM", "setting": "[3]; 100 nM STa, 50 μM compound", "value": 84.7, "unit": "%"}, {"measurement": "level of cyclic GMP", "setting": "[3]; 100 nM STa, 50 μM compound, vehicle 124±10, basal 6±2", "value": "24±6", "unit": "pmol/mg protein"}, {"measurement": "IC50", "setting": "[3]; 100 nM STa, read-out: IC50, inhibition of cyclic GMP synthesis", "value": 3.4, "unit": "µM"}, {"measurement": "STa concentration-dependent accumulation of cyclic GMP", "setting": "[3]; increasing STa 1 nM to 5 μM, 50 μM compound", "value": "significantly suppressed"}, {"measurement": "inhibition of cyclic AMP accumulation", "setting": "adenylyl cyclase", "value": "41.3% and 58.2%"}]}
